# System: Mo7e cells which endogenously express c-kit
# Test: Mo7e assay: inhibition of SCF dependent proliferation (MTT)
# Assay type: cell-based
# Details: Table 1; SCF stimulated Mo7e cells, 48 hours, MTT
# Description: The compounds described herein are tested for inhibition of SCF dependent proliferation using Mo7e cells which endogenously express c-kit in a 96 well format. Two-fold serially diluted test compounds (Cmax=10 μM) are evaluated for their antiproliferative activity of Mo7e cells stimulated with human recombinant SCF. After 48 hours of incubation at 37° C., cell viability is measured by using a MTT colorimetric assay from Promega. IC50 values for compounds of the invention are quoted in table 1, supra.
row,SMILES,IC50 [nM]
1,"Cc1cc2c(cn1)cc(-c1cc(Nc3noc(C4CCO4)n3)ccc1C)c(=O)n2C (stereo not shown) [Compound A66, 1,7-dimethyl-3-(2-methyl-5-{[5-(oxetan-2-yl)-1,2,4-oxadiazol-3-yl]amino}phenyl)-1,2-dihydro-1,6-naphthyridin-2-one]",143
2,"Cc1cc2c(cn1)cc(-c1cc(Nc3noc(CC(C)(C)C)n3)ccc1C)c(=O)n2C [Compound A19, 3-(5-{[5-(2,2-dimethylpropyl)-1,2,4-oxadiazol-3-yl]amino}-2-methylphenyl)-1,7-dimethyl-1,2-dihydro-1,6-naphthyridin-2-one]",216
3,"Cc1cc2c(cn1)cc(-c1cc(Nc3noc(C4CCC4)n3)ccc1C)c(=O)n2C [Compound A11, 3-{5-[(5-cyclobutyl-1,2,4-oxadiazol-3-yl)amino]-2-methylphenyl}-1,7-dimethyl-1,2-dihydro-1,6-naphthyridin-2-one]",12
4,Cc1cc2c(cn1)cc(-c1cc(Nc3cc(C4CCCO4)on3)ccc1C)c(=O)n2C (stereo not shown) [Compound D5],197
5,"Cc1cc2c(cn1)cc(-c1cc(Nc3noc(-c4cccnc4F)n3)ccc1C)c(=O)n2C [Compound A91, 3-(5-{[5-(2-fluoropyridin-3-yl)-1,2,4-oxadiazol-3-yl]amino}-2-methylphenyl)-1,7-dimethyl-1,2-dihydro-1,6-naphthyridin-2-one]",244
6,"Cc1cc2c(cn1)cc(-c1cc(Nc3noc(-c4cnccn4)n3)ccc1C)c(=O)n2C [Compound A70, 1,7-dimethyl-3-(2-methyl-5-{[5-(pyrazin-2-yl)-1,2,4-oxadiazol-3-yl]amino}phenyl)-1,2-dihydro-1,6-naphthyridin-2-one]",211
7,"Cc1cc2c(cn1)cc(-c1cc(Nc3noc(-c4ccc(F)cc4Cl)n3)ccc1C)c(=O)n2C [Compound A81, 3-(5-{[5-(2-chloro-4-fluorophenyl)-1,2,4-oxadiazol-3-yl]amino}-2-methylphenyl)-1,7-dimethyl-1,2-dihydro-1,6-naphthyridin-2-one]",237
8,"Cc1cc2c(cn1)cc(-c1cc(Nc3nnc(-c4ccccc4)o3)ccc1C)c(=O)n2C [Compound B4, 1,7-dimethyl-3-(2-methyl-5-(5-phenyl-1,3,4-oxadiazol-2-ylamino)phenyl)-1,6-naphthyridin-2(1H)-one]",105
9,"Cc1cc2c(cn1)cc(-c1cc(Nc3noc(-c4ccc(Cl)cc4Cl)n3)ccc1C)c(=O)n2C [Compound A82, 3-(5-{[5-(2,4-dichlorophenyl)-1,2,4-oxadiazol-3-yl]amino}-2-methylphenyl)-1,7-dimethyl-1,2-dihydro-1,6-naphthyridin-2-one]",262
10,"CCOCc1nc(Nc2ccc(C)c(-c3cc4cnc(C)cc4n(C)c3=O)c2)no1 [Compound A74, 3-(5-{[5-(ethoxymethyl)-1,2,4-oxadiazol-3-yl]amino}-2-methylphenyl)-1,7-dimethyl-1,2-dihydro-1,6-naphthyridin-2-one]",296
11,"Cc1ccc(-c2nc(Nc3ccc(C)c(-c4cc5cnc(C)cc5n(C)c4=O)c3)no2)nc1 [Compound A102, 1,7-dimethyl-3-(2-methyl-5-{[5-(5-methylpyridin-2-yl)-1,2,4-oxadiazol-3-yl]amino}phenyl)-1,2-dihydro-1,6-naphthyridin-2-one]",113
12,"Cc1cc2c(cn1)cc(-c1cc(Nc3nnc(C4CCCCC4)o3)ccc1C)c(=O)n2C [Compound B10, 3-{5-[(5-cyclohexyl-1,3,4-oxadiazol-2-yl)amino]-2-methylphenyl}-1,7-dimethyl-1,2-dihydro-1,6-naphthyridin-2-one]",378
13,Cc1cc2c(cn1)cc(-c1cc(Nc3cc(C(C)C)on3)ccc1C)c(=O)n2C [Compound D14],144
14,"Cc1cc2c(cn1)cc(-c1cc(Nc3noc(C4(O)CC4)n3)ccc1C)c(=O)n2C [Compound A57, 3-(5-(5-(1-hydroxycyclopropyl)-1,2,4-oxadiazol-3-ylamino)-2-methylphenyl)-1,7-dimethyl-1,6-naphthyridin-2(1H)-one]",185
15,"Cc1cc2c(cn1)cc(-c1cc(Nc3noc(-c4ccncc4)n3)ccc1C)c(=O)n2C [Compound A50, 1,7-dimethyl-3-(2-methyl-5-{[5-(pyridin-4-yl)-1,2,4-oxadiazol-3-yl]amino}phenyl)-1,2-dihydro-1,6-naphthyridin-2-one]",271
16,"Cc1cc2c(cn1)cc(-c1cc(Nc3nnc(C4CC4)o3)ccc1C)c(=O)n2C [Compound B9, 3-{5-[(5-cyclopropyl-1,3,4-oxadiazol-2-yl)amino]-2-methylphenyl}-1,7-dimethyl-1,2-dihydro-1,6-naphthyridin-2-one]",334
17,Cc1cc2c(cn1)cc(-c1cc(Nc3cc(-c4ccc(OC(F)(F)F)cc4)on3)ccc1C)c(=O)n2C [Compound D2],428
18,"Cc1cc2c(cn1)cc(-c1cc(Nc3noc(-c4nccs4)n3)ccc1C)c(=O)n2C [Compound A9, 1,7-dimethyl-3-(2-methyl-5-(5-(thiazol-2-yl)-1,2,4-oxadiazol-3-ylamino)phenyl)-1,6-naphthyridin-2(1H)-one]",204
19,"CCC(CC)c1nc(Nc2ccc(C)c(-c3cc4cnc(C)cc4n(C)c3=O)c2)no1 [Compound A31, 1,7-dimethyl-3-(2-methyl-5-{[5-(pentan-3-yl)-1,2,4-oxadiazol-3-yl]amino}phenyl)-1,2-dihydro-1,6-naphthyridin-2-one]",105
20,"CCC(C)c1nc(Nc2ccc(C)c(-c3cc4cnc(C)cc4n(C)c3=O)c2)no1 (stereo not shown) [Compound A29, 3-(5-{[5-(butan-2-yl)-1,2,4-oxadiazol-3-yl]amino}-2-methylphenyl)-1,7-dimethyl-1,2-dihydro-1,6-naphthyridin-2-one]",58
21,"Cc1cc2c(cn1)cc(-c1cc(Nc3noc(C(O)C(C)C)n3)ccc1C)c(=O)n2C (stereo not shown) [Compound A64, 3-(5-(5-(1-hydroxy-2-methylpropyl)-1,2,4-oxadiazol-3-ylamino)-2-methylphenyl)-1,7-dimethyl-1,6-naphthyridin-2(1H)-one]",118
22,"Cc1cc2c(cn1)cc(-c1cc(Nc3noc(-c4ccc(F)cc4F)n3)ccc1C)c(=O)n2C [Compound A61, 3-(5-{[5-(2,4-difluorophenyl)-1,2,4-oxadiazol-3-yl]amino}-2-methylphenyl)-1,7-dimethyl-1,2-dihydro-1,6-naphthyridin-2-one]",97
23,"Cc1cc2c(cn1)cc(-c1cc(Nc3noc(-c4ccc(O)cc4)n3)ccc1C)c(=O)n2C [Compound A36, 3-(5-{[5-(4-hydroxyphenyl)-1,2,4-oxadiazol-3-yl]amino}-2-methylphenyl)-1,7-dimethyl-1,2-dihydro-1,6-naphthyridin-2-one]",375
24,"Cc1cc2c(cn1)cc(-c1cc(Nc3noc([C@@]4(C)CCCO4)n3)ccc1C)c(=O)n2C [Compound A97, 1,7-dimethyl-3-[2-methyl-5-({5-[(2R)-2-methyloxolan-2-yl]-1,2,4-oxadiazol-3-yl}amino)phenyl]-1,2-dihydro-1,6-naphthyridin-2-one]",160
25,"Cc1cc2c(cn1)cc(-c1cc(Nc3noc(-c4ccccn4)n3)ccc1C)c(=O)n2C [Compound A52, 1,7-dimethyl-3-(2-methyl-5-(5-(pyridin-2-yl)-1,2,4-oxadiazol-3-ylamino)phenyl)-1,6-naphthyridin-2(1H)-one]",68

# — patent US8278452B2, “Heterocyclic compounds and compositions as c-kit and PDGFR kinase inhibitors” (IRM LLC, priority 2008, dated 2012)
